Literature values as cited in article PMC9851200, “Multiparameter phenotypic screening for endogenous TFEB and TFE3 translocation identifies novel chemical series modulating lysosome function” (Autophagy, 2022).

Tests used:
Design in all cases: method as in original PKIS2 published data
[1] = biological target: kinases (KINOMEscan panel) (Homo sapiens, UniProt P24941); details: CDK2; Published KINOMEscan; ref original PKIS2 published data; cited from earlier work
[2] = biological target: T1, kinases (KINOMEscan panel) (Homo sapiens, UniProt P25098); details: Published KINOMEscan; ref original PKIS2 published data; cited from earlier work
T1 sequence (P25098 1-689): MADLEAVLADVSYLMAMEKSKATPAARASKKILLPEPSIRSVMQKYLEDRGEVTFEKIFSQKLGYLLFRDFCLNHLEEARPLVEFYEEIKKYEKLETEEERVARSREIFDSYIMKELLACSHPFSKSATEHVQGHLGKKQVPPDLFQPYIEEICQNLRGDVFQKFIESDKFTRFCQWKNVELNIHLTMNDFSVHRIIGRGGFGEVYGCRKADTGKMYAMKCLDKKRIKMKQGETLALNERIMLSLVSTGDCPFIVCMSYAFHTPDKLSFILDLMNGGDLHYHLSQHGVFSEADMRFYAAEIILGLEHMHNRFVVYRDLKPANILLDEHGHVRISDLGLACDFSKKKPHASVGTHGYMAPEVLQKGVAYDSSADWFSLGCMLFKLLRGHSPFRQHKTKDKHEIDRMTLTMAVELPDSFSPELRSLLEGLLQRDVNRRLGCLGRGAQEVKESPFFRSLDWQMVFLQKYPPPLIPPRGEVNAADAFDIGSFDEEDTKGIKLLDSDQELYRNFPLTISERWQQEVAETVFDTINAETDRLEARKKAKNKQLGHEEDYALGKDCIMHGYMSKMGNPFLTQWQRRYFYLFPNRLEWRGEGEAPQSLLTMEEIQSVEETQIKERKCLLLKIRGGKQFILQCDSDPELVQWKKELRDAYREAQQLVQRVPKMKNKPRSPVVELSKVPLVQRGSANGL

[3] = biological target: kinases (KINOMEscan panel) (Homo sapiens, UniProt Q15303); details: kinase ERBB4; Published KINOMEscan; ref original PKIS2 published data; cited from earlier work
[4] = biological target: T2, kinases (KINOMEscan panel) (Homo sapiens, UniProt Q8IVH8); details: Published KINOMEscan; ref original PKIS2 published data; cited from earlier work
T2 sequence (Q8IVH8 1-894): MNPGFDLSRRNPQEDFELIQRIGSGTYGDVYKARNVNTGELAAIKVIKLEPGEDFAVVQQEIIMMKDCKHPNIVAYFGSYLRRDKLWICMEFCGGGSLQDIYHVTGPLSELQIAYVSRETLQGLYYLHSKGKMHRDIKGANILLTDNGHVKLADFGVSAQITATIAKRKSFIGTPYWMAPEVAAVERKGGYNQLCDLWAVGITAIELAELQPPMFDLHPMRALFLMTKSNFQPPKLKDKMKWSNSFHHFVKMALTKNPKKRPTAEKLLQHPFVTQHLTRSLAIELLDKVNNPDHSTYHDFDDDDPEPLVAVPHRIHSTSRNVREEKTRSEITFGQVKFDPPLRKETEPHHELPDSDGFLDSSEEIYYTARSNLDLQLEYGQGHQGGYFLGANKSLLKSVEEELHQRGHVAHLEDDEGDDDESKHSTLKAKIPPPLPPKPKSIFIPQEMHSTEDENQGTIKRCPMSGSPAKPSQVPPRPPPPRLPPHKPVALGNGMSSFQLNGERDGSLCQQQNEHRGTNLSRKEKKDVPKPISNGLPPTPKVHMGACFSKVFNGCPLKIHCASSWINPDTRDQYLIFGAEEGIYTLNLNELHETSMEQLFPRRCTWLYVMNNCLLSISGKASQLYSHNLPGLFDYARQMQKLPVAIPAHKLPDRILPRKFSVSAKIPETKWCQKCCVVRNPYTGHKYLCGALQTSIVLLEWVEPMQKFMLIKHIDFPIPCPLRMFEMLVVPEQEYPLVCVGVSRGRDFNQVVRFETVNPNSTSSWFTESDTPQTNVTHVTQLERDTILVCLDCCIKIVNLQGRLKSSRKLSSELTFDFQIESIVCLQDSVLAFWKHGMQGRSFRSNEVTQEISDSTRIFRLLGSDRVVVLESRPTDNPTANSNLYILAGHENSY

[5] = biological target: T3, kinases (KINOMEscan panel) (Homo sapiens, UniProt Q8TDC3); details: BRSK1; Published KINOMEscan; ref original PKIS2 published data; cited from earlier work
T3 sequence (Q8TDC3 1-778): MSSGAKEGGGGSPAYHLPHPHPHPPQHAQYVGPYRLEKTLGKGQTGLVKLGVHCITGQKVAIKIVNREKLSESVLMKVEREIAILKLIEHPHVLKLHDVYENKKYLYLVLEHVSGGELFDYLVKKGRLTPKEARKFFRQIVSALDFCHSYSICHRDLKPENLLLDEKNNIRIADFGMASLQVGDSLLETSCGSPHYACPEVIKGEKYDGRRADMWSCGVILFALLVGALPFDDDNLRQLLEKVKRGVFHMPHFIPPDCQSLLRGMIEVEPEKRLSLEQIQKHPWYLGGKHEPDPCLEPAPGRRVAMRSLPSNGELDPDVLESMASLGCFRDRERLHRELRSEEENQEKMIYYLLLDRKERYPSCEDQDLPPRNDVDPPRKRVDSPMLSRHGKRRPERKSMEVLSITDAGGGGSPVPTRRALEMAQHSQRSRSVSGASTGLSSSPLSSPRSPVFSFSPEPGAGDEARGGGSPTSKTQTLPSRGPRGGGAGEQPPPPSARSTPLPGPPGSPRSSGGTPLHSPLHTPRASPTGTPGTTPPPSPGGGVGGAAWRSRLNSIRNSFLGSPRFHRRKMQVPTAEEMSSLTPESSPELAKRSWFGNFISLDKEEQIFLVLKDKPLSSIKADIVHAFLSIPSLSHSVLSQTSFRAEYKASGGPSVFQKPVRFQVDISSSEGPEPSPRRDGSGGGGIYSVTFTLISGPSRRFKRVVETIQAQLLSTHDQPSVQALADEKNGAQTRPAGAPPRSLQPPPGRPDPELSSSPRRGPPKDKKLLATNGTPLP

Chain of kinases (KINOMEscan panel) (Homo sapiens, UniProt Q15303) (Q15303 26-1308): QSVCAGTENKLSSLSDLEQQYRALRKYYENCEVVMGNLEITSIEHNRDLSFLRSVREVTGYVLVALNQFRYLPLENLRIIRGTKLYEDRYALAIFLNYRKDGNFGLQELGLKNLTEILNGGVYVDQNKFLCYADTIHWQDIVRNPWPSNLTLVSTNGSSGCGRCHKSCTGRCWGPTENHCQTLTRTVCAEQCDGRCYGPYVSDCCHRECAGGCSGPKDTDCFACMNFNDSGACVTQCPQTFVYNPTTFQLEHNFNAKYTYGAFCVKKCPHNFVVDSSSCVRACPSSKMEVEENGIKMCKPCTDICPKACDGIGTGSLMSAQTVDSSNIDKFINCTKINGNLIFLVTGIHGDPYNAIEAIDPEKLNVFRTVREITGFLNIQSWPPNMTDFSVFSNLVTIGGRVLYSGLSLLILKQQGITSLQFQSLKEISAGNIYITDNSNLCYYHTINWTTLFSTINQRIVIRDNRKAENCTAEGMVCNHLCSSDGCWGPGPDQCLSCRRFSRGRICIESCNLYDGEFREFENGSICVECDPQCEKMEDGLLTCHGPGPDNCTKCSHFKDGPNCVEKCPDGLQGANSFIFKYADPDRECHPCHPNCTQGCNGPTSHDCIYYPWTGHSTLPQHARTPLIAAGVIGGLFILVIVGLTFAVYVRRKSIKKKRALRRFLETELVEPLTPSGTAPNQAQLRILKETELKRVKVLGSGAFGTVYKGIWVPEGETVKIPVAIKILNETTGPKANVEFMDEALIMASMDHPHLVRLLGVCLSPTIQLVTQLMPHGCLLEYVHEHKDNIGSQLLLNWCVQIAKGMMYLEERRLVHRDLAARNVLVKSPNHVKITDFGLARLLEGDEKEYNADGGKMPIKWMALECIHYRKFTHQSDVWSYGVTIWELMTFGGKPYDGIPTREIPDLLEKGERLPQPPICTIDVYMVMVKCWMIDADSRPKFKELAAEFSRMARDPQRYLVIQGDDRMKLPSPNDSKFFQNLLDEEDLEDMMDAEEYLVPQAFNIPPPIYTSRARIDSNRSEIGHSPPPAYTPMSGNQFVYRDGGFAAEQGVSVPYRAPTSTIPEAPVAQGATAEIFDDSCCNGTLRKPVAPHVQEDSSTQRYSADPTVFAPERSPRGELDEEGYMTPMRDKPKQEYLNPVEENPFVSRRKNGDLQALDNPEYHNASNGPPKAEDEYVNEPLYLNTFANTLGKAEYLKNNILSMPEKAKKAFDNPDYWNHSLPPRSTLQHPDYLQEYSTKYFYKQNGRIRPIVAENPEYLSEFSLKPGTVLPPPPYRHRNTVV

Cc1cccc(-c2nc(Nc3ccncc3)c3ccccc3n2)n1 [NK215]
0: KINOMEscan CDK2 [1] | KINOMEscan GRK2 [2] | KINOMEscan ERBB4 [3] | KINOMEscan MAP4K3 [4] | KINOMEscan BRSK1 [5]
